{"source": "paper PMC9653409", "about": "“Generative deep learning enables the discovery of a potent and selective RIPK1 inhibitor” (Nature Communications, 2022)", "experiment_in_all_cases": "Kinase inhibitory activity profiling of RI-962@10 µM (406 kinases, Eurofins)", "format_in_all_cases": "biochemical", "key": {"[1]": {"molecular_target": "panel of human kinases (kinase named in endpoint) (Homo sapiens, UniProt P12931)", "sequence (P12931 whole entry)": "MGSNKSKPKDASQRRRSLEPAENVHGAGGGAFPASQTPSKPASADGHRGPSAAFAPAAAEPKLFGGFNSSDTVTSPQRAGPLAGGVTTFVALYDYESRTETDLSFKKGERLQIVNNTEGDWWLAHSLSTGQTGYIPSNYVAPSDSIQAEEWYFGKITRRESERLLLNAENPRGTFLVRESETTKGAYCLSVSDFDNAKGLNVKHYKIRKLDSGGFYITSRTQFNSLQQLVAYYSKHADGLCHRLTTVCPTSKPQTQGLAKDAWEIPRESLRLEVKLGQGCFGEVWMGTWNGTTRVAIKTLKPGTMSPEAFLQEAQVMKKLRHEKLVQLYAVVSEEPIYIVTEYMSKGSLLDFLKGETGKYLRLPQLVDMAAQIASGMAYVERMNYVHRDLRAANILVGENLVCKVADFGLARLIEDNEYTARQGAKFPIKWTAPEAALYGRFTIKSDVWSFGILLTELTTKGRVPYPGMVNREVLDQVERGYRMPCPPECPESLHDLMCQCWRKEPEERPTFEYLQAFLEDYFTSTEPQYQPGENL", "settings": "10 µM", "procedure,_shortened": "(§1)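 Radiometric filter-binding kinase assays: enzyme preincubated 15 min with compound in 8 mM MOPS pH 7.0, 0.2 mM EDTA, 250 μM peptide substrate, 10 mM magnesium acetate, 10 μM [γ-33P]-ATP. Reaction started with Mg/ATP, run 40 min at room temperature, stopped with phosphoric acid; 33P incorporation read by scintillation counting. Other kinases by similar protocols.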"}, "[2]": {"molecular_target": "panel of human kinases (kinase named in endpoint) (Homo sapiens, UniProt P42685)", "settings": "10 µM; read-out: Activity (%), PTK5(h)", "procedure,_shortened": "as §1"}, "[3]": {"molecular_target": "panel of human kinases (kinase named in endpoint) (Homo sapiens, UniProt Q9H2G2)", "settings": "10 µM; read-out: Activity (%), SLK(h)", "procedure,_shortened": "as §1"}, "[4]": {"molecular_target": "panel of human kinases (kinase named in endpoint) (Homo sapiens, UniProt P11802)", "sequence (P11802 whole entry)": "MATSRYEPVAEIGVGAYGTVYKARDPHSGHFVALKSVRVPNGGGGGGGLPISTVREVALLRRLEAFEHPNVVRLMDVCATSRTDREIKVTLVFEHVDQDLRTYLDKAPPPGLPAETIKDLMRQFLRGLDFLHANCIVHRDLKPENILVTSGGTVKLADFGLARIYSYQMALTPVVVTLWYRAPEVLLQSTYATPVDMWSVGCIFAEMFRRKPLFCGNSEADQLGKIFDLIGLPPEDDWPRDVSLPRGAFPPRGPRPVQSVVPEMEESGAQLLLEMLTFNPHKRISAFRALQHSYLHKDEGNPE", "settings": "10 µM; read-out: Activity (%), CDK4/cyclinD3(h)", "procedure,_shortened": "as §1"}, "[5]": {"molecular_target": "panel of human kinases (kinase named in endpoint) (Homo sapiens, UniProt Q15835)", "sequence (Q15835 whole entry)": "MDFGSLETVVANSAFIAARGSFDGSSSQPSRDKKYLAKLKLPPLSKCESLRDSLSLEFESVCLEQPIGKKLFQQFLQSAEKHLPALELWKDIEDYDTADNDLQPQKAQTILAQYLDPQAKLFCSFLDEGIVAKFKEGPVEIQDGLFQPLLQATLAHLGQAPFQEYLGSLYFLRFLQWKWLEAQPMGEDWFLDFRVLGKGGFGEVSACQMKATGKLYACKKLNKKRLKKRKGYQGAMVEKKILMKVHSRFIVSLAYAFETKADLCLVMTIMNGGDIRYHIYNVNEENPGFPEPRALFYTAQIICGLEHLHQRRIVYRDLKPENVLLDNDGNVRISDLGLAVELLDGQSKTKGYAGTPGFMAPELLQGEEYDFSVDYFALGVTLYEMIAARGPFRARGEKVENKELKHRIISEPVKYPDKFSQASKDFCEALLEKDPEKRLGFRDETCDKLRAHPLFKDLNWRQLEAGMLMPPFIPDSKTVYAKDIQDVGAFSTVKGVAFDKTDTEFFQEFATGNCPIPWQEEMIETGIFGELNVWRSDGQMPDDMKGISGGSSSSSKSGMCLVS", "settings": "10 µM; read-out: Activity (%), GRK1(h)", "procedure,_shortened": "as §1"}, "[6]": {"molecular_target": "panel of human kinases (kinase named in endpoint) (Homo sapiens, UniProt P42336, H1047R)", "settings": "10 µM; read-out: Activity (%), PI3 Kinase (p110a(H1047R)/p85a)(h)", "procedure,_shortened": "as §1"}, "[7]": {"molecular_target": "panel of human kinases (kinase named in endpoint) (Homo sapiens, UniProt Q13315)", "settings": "10 µM; read-out: Activity (%), ATM(h)", "procedure,_shortened": "as §1"}, "[8]": {"molecular_target": "panel of human kinases (kinase named in endpoint) (Homo sapiens, UniProt P52564)", "settings": "10 µM; read-out: Activity (%), MKK6(h)", "procedure,_shortened": "as §1"}, "[9]": {"molecular_target": "panel of human kinases (kinase named in endpoint) (Homo sapiens, UniProt P22607)", "sequence (P22607 23-806)": "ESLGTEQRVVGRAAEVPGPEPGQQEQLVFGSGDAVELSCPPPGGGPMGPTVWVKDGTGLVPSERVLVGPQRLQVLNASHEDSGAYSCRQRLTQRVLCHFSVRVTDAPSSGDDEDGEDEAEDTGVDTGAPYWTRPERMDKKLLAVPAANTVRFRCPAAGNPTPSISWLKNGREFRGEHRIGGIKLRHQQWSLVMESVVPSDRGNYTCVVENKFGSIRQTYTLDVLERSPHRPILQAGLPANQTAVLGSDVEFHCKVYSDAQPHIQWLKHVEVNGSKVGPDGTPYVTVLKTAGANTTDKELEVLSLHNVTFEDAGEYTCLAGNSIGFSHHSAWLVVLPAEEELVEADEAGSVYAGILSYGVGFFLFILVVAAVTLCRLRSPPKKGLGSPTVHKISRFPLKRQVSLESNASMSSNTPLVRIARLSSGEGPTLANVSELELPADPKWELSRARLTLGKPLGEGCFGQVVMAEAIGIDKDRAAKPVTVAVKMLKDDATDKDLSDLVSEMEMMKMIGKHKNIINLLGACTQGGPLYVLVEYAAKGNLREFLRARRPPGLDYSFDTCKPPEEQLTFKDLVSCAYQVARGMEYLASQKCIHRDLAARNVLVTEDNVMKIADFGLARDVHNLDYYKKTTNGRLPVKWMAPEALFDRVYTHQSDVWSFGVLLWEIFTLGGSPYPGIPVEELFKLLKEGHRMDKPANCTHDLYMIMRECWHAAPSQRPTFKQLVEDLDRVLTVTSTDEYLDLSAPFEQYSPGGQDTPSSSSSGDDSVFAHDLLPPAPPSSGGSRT", "settings": "10 µM; read-out: Activity (%), FGFR3(h)", "procedure,_shortened": "as §1"}, "[10]": {"molecular_target": "panel of human kinases (kinase named in endpoint) (Homo sapiens, UniProt Q8IWQ3)", "settings": "10 µM; read-out: Activity (%), BrSK2(h)", "procedure,_shortened": "as §1"}, "[11]": {"molecular_target": "panel of human kinases (kinase named in endpoint) (Homo sapiens, UniProt O96013)", "settings": "10 µM; read-out: Activity (%), PAK4(h)", "procedure,_shortened": "as §1"}, "[12]": {"molecular_target": "panel of human kinases (kinase named in endpoint) (Homo sapiens, UniProt Q05397)", "settings": "10 µM; read-out: Activity (%), FAK(h)", "procedure,_shortened": "as §1"}, "[13]": {"molecular_target": "panel of human kinases (kinase named in endpoint) (Homo sapiens, UniProt Q9UPZ9)", "sequence (Q9UPZ9 whole entry)": "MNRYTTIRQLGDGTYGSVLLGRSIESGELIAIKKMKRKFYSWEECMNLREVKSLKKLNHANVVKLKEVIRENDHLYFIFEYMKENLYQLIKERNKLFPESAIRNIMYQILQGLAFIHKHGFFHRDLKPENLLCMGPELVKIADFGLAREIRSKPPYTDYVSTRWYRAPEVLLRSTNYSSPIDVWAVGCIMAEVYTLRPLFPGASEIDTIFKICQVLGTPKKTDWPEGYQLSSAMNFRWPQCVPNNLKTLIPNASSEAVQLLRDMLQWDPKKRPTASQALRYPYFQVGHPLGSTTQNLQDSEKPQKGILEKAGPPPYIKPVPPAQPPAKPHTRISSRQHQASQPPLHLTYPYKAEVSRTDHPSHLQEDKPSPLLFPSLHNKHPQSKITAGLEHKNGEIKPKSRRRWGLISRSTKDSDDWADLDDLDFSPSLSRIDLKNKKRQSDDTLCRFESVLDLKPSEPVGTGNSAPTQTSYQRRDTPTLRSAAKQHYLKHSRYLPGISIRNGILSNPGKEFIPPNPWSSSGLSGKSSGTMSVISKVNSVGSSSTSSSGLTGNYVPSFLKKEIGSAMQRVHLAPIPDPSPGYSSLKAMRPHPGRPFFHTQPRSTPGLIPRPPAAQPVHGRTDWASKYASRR", "settings": "10 µM; read-out: Activity (%), ICK(h)", "procedure,_shortened": "as §1"}, "[14]": {"molecular_target": "panel of human kinases (kinase named in endpoint) (Homo sapiens, UniProt Q9Y5S2)", "settings": "10 µM; read-out: Activity (%), MRCKβ(h)", "procedure,_shortened": "as §1"}, "[15]": {"molecular_target": "panel of human kinases (kinase named in endpoint) (Homo sapiens, UniProt P20794)", "sequence (P20794 whole entry)": "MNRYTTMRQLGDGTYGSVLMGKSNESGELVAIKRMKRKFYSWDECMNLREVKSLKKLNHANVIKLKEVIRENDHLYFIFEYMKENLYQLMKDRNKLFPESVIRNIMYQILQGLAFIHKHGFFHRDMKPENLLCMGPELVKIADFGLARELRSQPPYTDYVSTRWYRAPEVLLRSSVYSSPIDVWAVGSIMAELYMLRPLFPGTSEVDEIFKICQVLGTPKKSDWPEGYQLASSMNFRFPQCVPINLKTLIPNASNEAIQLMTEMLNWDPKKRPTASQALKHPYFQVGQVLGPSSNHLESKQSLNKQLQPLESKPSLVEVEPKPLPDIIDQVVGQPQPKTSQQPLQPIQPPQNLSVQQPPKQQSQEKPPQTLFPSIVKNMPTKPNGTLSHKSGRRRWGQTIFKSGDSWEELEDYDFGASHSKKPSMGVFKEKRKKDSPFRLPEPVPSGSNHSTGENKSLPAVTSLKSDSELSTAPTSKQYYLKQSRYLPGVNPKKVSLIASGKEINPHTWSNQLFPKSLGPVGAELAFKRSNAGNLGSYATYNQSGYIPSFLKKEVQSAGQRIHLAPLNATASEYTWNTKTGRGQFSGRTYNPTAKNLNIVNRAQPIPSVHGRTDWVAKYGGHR", "settings": "10 µM; read-out: Activity (%), MAK(h)", "procedure,_shortened": "as §1"}, "[16]": {"molecular_target": "panel of human kinases (kinase named in endpoint) (Homo sapiens, UniProt P08581, Y1230C)", "settings": "10 µM; read-out: Activity (%), Met(Y1248C)(h)", "procedure,_shortened": "as §1"}, "[17]": {"molecular_target": "panel of human kinases (kinase named in endpoint) (Homo sapiens, UniProt Q86Z02)", "settings": "10 µM; read-out: Activity (%), HIPK1(h)", "procedure,_shortened": "as §1"}, "[18]": {"molecular_target": "panel of human kinases (kinase named in endpoint) (Homo sapiens, UniProt Q86V86)", "settings": "10 µM; read-out: Activity (%), Pim-3(h)", "procedure,_shortened": "as §1"}, "[19]": {"molecular_target": "panel of human kinases (kinase named in endpoint) (Homo sapiens, UniProt Q9P0L2)", "settings": "10 µM; read-out: Activity (%), MARK1(h)", "procedure,_shortened": "as §1"}, "[20]": {"molecular_target": "panel of human kinases (kinase named in endpoint) (Homo sapiens, UniProt P54760)", "sequence (P54760 16-987)": "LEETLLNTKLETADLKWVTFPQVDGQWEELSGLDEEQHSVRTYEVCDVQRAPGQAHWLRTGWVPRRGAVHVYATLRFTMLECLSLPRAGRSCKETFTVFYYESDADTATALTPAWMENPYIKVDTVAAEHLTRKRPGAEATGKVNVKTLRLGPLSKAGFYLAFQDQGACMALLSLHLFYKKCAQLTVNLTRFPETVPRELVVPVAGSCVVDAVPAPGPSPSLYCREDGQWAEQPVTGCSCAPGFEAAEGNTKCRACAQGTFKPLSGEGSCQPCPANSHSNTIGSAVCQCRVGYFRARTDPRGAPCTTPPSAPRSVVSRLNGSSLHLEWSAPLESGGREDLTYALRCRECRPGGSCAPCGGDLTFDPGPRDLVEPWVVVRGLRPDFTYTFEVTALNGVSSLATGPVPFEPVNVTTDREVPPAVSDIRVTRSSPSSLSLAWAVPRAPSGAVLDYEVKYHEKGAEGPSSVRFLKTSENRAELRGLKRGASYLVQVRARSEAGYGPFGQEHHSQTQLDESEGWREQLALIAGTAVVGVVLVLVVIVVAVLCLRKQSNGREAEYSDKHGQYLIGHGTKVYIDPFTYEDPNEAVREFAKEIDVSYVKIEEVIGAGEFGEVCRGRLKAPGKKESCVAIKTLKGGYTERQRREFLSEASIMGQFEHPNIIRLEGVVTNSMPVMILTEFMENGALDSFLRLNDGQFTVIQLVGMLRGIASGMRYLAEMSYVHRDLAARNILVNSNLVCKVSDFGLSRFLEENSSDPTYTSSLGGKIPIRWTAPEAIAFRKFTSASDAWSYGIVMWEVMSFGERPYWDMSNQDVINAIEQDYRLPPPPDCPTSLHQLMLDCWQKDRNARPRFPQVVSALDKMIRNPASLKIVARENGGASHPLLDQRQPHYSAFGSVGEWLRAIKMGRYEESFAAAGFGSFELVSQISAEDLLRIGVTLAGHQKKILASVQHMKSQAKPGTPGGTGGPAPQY", "settings": "10 µM; read-out: Activity (%), EphB4(h)", "procedure,_shortened": "as §1"}, "[21]": {"molecular_target": "panel of human kinases (kinase named in endpoint) (Homo sapiens, UniProt P05129)", "settings": "10 µM; read-out: Activity (%), PKCγ(h)", "procedure,_shortened": "as §1"}, "[22]": {"molecular_target": "panel of human kinases (kinase named in endpoint) (Homo sapiens, UniProt Q9BQI3)", "sequence (Q9BQI3 whole entry)": "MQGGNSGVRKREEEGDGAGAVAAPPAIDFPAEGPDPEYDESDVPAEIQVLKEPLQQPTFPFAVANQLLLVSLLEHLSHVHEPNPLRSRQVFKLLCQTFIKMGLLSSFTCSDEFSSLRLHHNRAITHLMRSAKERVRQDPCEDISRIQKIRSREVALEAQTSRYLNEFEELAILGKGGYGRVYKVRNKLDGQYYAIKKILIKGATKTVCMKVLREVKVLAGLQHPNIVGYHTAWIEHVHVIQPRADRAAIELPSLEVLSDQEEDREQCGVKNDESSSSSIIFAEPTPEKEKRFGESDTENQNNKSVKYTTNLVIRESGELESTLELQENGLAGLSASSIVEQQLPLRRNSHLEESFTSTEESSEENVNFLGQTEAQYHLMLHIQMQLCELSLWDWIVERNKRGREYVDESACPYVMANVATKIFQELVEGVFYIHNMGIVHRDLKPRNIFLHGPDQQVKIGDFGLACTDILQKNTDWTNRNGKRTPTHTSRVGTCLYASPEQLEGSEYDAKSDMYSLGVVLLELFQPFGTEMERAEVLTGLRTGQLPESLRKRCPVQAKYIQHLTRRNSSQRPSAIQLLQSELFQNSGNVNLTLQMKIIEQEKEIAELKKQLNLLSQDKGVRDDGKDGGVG", "settings": "10 µM; read-out: Activity (%), HRI(h)", "procedure,_shortened": "as §1"}, "[23]": {"molecular_target": "panel of human kinases (kinase named in endpoint) (Homo sapiens, UniProt Q9BXA7)", "settings": "10 µM; read-out: Activity (%), TSSK1(h)", "procedure,_shortened": "as §1"}, "[24]": {"molecular_target": "panel of human kinases (kinase named in endpoint) (Homo sapiens, UniProt Q15303)", "settings": "10 µM; read-out: Activity (%), ErbB4(h)", "procedure,_shortened": "as §1"}, "[25]": {"molecular_target": "panel of human kinases (kinase named in endpoint) (Mus musculus, UniProt Q4JIM5)", "settings": "10 µM; read-out: Activity (%), Arg(m)", "procedure,_shortened": "as §1"}}, "note": "Like-named read-outs stand apart in the source and are kept apart here.", "data": [{"smiles": "CC(C)C(=O)Nc1nc2cc(-c3ccc4c(c3)c(C(=O)NC(C)c3ccccc3)cn4C)ccn2n1", "note": "(centres unmarked) [RI-962]", "values": [{"measurement": "activity at 10 µM", "setting": "[1]; read-out: Activity (%), Src(1-530)(h)", "result": 95, "unit": "%"}, {"measurement": "activity at 10 µM", "setting": "[1]; read-out: Activity (%), cSRC(h)", "result": 100, "unit": "%"}, {"measurement": "activity at 10 µM", "setting": "[2]", "result": 104, "unit": "%"}, {"measurement": "activity at 10 µM", "setting": "[3]", "result": 84, "unit": "%"}, {"measurement": "activity at 10 µM", "setting": "[4]", "result": 75, "unit": "%"}, {"measurement": "activity at 10 µM", "setting": "[5]", "result": 111, "unit": "%"}, {"measurement": "activity at 10 µM", "setting": "[6]", "result": 99, "unit": "%"}, {"measurement": "activity at 10 µM", "setting": "[7]", "result": 85, "unit": "%"}, {"measurement": "activity at 10 µM", "setting": "[8]", "result": 97, "unit": "%"}, {"measurement": "activity at 10 µM", "setting": "[9]", "result": 72, "unit": "%"}, {"measurement": "activity at 10 µM", "setting": "[10]", "result": 110, "unit": "%"}, {"measurement": "activity at 10 µM", "setting": "[11]", "result": 92, "unit": "%"}, {"measurement": "activity at 10 µM", "setting": "[12]", "result": 108, "unit": "%"}, {"measurement": "activity at 10 µM", "setting": "[13]", "result": 102, "unit": "%"}, {"measurement": "activity at 10 µM", "setting": "[14]", "result": 79, "unit": "%"}, {"measurement": "activity at 10 µM", "setting": "[15]", "result": 126, "unit": "%"}, {"measurement": "activity at 10 µM", "setting": "[16]", "result": 116, "unit": "%"}, {"measurement": "activity at 10 µM", "setting": "[17]", "result": 103, "unit": "%"}, {"measurement": "activity at 10 µM", "setting": "[18]", "result": 111, "unit": "%"}, {"measurement": "activity at 10 µM", "setting": "[19]", "result": 99, "unit": "%"}, {"measurement": "activity at 10 µM", "setting": "[20]", "result": 90, "unit": "%"}, {"measurement": "activity at 10 µM", "setting": "[21]", "result": 93, "unit": "%"}, {"measurement": "activity at 10 µM", "setting": "[22]", "result": 99, "unit": "%"}, {"measurement": "activity at 10 µM", "setting": "[23]", "result": 84, "unit": "%"}, {"measurement": "activity at 10 µM", "setting": "[24]", "result": 98, "unit": "%"}, {"measurement": "activity at 10 µM", "setting": "[25]", "result": 90, "unit": "%"}]}]}
